Data reported in PMC5520057, “Modulation of nongenomic activation of PI3K signalling by tetramerization of N-terminally-cleaved RXRα” (Nature Communications, 2017).
Like-named read-outs stand apart in the source and are kept apart here.

Legend:
RXRα = experiment: BS3 crosslinking, transfected full-length RXRα; format: cell-based; conditions: HepG2 cells; K-80003 (5 × 10^−6 M) for 6 h; BS3 1 mM; western blotting
Protocol: (§1) Cell lysates were then prepared and incubated with bis[sulfosuccinimidyl] suberate (BS3, Pierce) dissolved in dimethyl sulfoxide to a final concentration of 1 mM. The reactions were stopped with protein gel loading buffer. Samples were resolved by SDS/PAGE in 8% acrylamide gels and protein bands were visualized by western blotting.

tRXRα/F313A = experiment: BS3 crosslinking, tRXRα/F313A; format: cell-based; conditions: MCF-7 cells, 9-cis-RA (10^−7 M) or K-80003 (5 × 10^−6 M) for 6 h
Protocol: as §1

tRXRα [1] = experiment: BS3 crosslinking, transfected tRXRα; format: cell-based
Protocol: as §1

RXRα-LBD/Q275E = experiment: Non-denaturing gel electrophoresis, Q275E mutant; format: biochemical, human; conditions: K-80003 (20 μM), 3 h at 4 °C
Protocol: (§2) The human RXRα LBD (residues Thr223 to Thr462) cloned as an N-terminal histidine-tagged fusion protein in pET15b expression vector was expressed in Escherichia coli BL21 strain (Stratagene). After sonication, cell extract was incubated with the His60 Ni Superflow resin, and His-tagged RXRα-LBD-resin complexes were washed, eluted and concentrated to 5 mg ml^−1 for subsequent trails. For crystallization experiment, bovine thrombin (Sigma) was used to cleave the His tag from the purified His-tagged RXRα-LBD. The resulting His tag was removed on the Resource-Q column (GE) using 0.1–1 M NaCl gradient and the Tris-Cl pH 8 buffer. RXRα-LDB was further purified using gel filtration on a Superdex 200 2660 column (GE) pre-equilibrated with the 75 mM NaCl, 20 mM Tris-Cl buffer (pH 8).

MMTV-PyMT mammary tumour = experiment: MMTV-PyMT tumours, Ki-67 immunostaining; format: in vivo, MMTV-PyMT mice; conditions: diet with K-80003 (100 mg kg^−1) for 4 weeks; Ki-67 positive cells scored from 500 cells
Protocol: For nude mice xenograft study, Myc-RXRα and Myc-tRXRα cloned into pcdna3.0 vector were stably transfected into MCF-7 cells, and the resulting stable clones and control clone (2 × 10^6 cells in 100 μl) were injected subcutaneously into nude mice (BALB/c, SPF grade, 16–18 g, 4–5-week old). For drug treatment, mice were intraperitoneally injected (i.p.) daily with K-80003 (20 mg kg^−1) diluted in Tween-80 or vehicle (tween-80). Body weight and tumour size were measured every 2 days. Mice were killed after 12-day drug treatment and the tumours removed for various assessments. For MMTV-PyMT transgenic mouse study, 4-week old female mice of a transgenic mouse on the FVB/N genetic background expressing the PyMT oncogene under the control of MMTV LTR promoter[40] were fed with diet containing with or without K-80003 (100 mg kg^−1) for 4 weeks. Estimation of tumour appearance was performed by palpation once every day. Tumour tissues of left thoracic mammary glands were excised after the treatment. […]
(a) Expression of tRXRα in MMTV-PyMT mammary tumors analyzed by Western blotting using ΔN197 anti-RXRα antibody.
(b) Tumor sections from MMTV-PyMT mice fed with vehicle or K-80003 were immunostained with anti-Ki-67 antibody. Ki-67 positive cells were scored from 500 cells. […]

p85α / tRXRα interaction [2] = experiment: coIP, p85α with tRXRα; format: cell-based; conditions: conclusion from structure and crosslinking
Protocol: For coIP assay[29], HEK293T cells grown in 10 cm dishes were transfected with various plasmids. Cells were lysed in 1 ml of lysis buffer (20 mM Tris (pH 7.5), 150 mM NaCl, 1% Triton X-100, 1 mM EDTA, 30 mM NaF, 2 mM sodium pyrophosphate) with a cocktail of proteinase inhibitors (Roche). Lysates were incubated with the appropriate antibody for 12 h at 4 °C and subsequently incubated with protein A-Sepharose beads for 1 h. The immunoprecipitates were collected and washed three times with lysis buffer. The protein–antibody complexes recovered on beads were subjected to immunoblotting using appropriate antibodies after separation by SDS-PAGE. Input represents 5% of cell lysates used for coIP assays.

p85α / tRXRα interaction [3] = tested on: p85α / tRXRα interaction; design: method as in PMID 20541701; conditions: cited from earlier work
PyMT mammary tumour = experiment: MMTV-PyMT transgenic mice, mammary tumour; format: in vivo; conditions: 4-week old MMTV-PyMT mice; diet with K-80003 (100 mg kg^−1) for 4 weeks
Protocol: For nude mice xenograft study, Myc-RXRα and Myc-tRXRα cloned into pcdna3.0 vector were stably transfected into MCF-7 cells, and the resulting stable clones and control clone (2 × 10^6 cells in 100 μl) were injected subcutaneously into nude mice (BALB/c, SPF grade, 16–18 g, 4–5-week old). For drug treatment, mice were intraperitoneally injected (i.p.) daily with K-80003 (20 mg kg^−1) diluted in Tween-80 or vehicle (tween-80). Body weight and tumour size were measured every 2 days. Mice were killed after 12-day drug treatment and the tumours removed for various assessments. For MMTV-PyMT transgenic mouse study, 4-week old female mice of a transgenic mouse on the FVB/N genetic background expressing the PyMT oncogene under the control of MMTV LTR promoter[40] were fed with diet containing with or without K-80003 (100 mg kg^−1) for 4 weeks. Estimation of tumour appearance was performed by palpation once every day. Tumour tissues of left thoracic mammary glands were excised after the treatment. Portion of tissues was used to prepare extracts for western blotting, while the rest was fixed in 4% phosphate-buffered paraformaldehyde, and used for immunohistochemical staining using anti-Ki67 antibody and immunostaining using Δ197 anti-RXRα antibody. All experimentations and animal usage were performed and approved by the Animal Care and Use Committee of Xiamen University.

tRXRα/R316E = experiment: BS3 crosslinking, tRXRα/R316E; format: cell-based; conditions: MCF-7 cells, 9-cis-RA (10^−7 M) or K-80003 (5 × 10^−6 M) for 6 h
Protocol: as §1

tRXRα [4] = experiment: Subcellular localization of tRXRα, immunostaining; format: cell-based; conditions: MCF-7 cells; K-80003 (5 × 10^−6 M) for 3 h, then TNFα (10 ng ml^−1) for 30 min
Protocol: Cells mounted on glass slides or tumour tissue frozen sections (5-μm-thick) were washed with PBS and fixed in 4% paraformaldehyde (PFA) for 15 min and permeabilized with PBS containing 0.1% Triton X-100 for 15 min. Fixed cells or tumour tissues were blocked with 5 mg ml^−1 BSA in PBS for 30 min at room temperature, followed with incubation with primary antibodies for 3 h and secondary antibodies at room temperature for 1 h and co-stained with 4′6′-diamidino-2-phenylindole (DAPI) to visualize nuclei. The images were taken under an LSM-510 confocal laser scanning microscope system (Carl Zeiss).

RXRα-LBD = experiment: BS3 crosslinking, transfected RXRα-LBD; format: cell-based; conditions: HepG2 cells; 9-cis-RA (10^−7 M) or K-80003 (5 × 10^−6 M) for 6 h; BS3 1 mM; western blotting
Protocol: as §1

PI3K signalling = tested on: PI3K signalling; design: method as in PMID 20541701; conditions: cited from earlier work
RXRα-LBD/F439A = experiment: Non-denaturing gel electrophoresis, F439A mutant; format: biochemical, human; conditions: K-80003 (20 μM), 3 h at 4 °C
Protocol: as §2

RXRα-LBD/L433D = experiment: ITC, RXRα-LBD/L433D mutant; format: binding, human; conditions: 25 °C, protein 50 μM, pH 7.5, compound 1 mM
Protocol: as §2
Binding of compounds to RXRα-LBD or mutant was studied in […] at 25 °C using isothermal titration calorimetry (ITC) assay that measures the heat either released or absorbed during binding. The purified His-tagged RXRα-LBD or mutant protein (50 μM in 25 mM Tris-HCl, pH 7.5, 150 mM NaCl, 0.1% DMSO) was placed in the sample cell of MicroCal VP-ITC titration calorimeter. The compounds to be studied were diluted to a concentration of 1 mM in the same buffer. All solutions were degassed before the titrations. […] Calorimetric data were analysed using MicroCal Origin software (version 7.0).

## CC1=C(CC(=O)O)c2cc(F)ccc2/C1=C\c1ccc(C(C)C)cc1 [K-80003]
RXRα
  tetramerization of full-length RXRα: failed to promote the tetramerization of the full-length RXRα
tRXRα/F313A
  oligomeric state of tRXRα/F313A: strong tetrameric species of tRXRα/R316E but not tRXRα/F313A independent of the presence of 9-cis-RA or K-80003
tRXRα [1]; HEK293T cells, tRXRα together with RXRα-A/B, K-80003, BS3, one of three similar experiments
  tetramerization of tRXRα with cotransfected RXRα A/B domain: completely suppressed the effect of K-80003 on promoting tRXRα tetramerization
tRXRα [1]; HepG2 cells, K-80003 (5 × 10^−6 M) for 6 h, BS3 1 mM, western blotting
  tetramerization of tRXRα: effectively promoted the formation of tRXRα tetramers
RXRα-LBD/Q275E
  effect on tetramerization of Q275E mutant: impaired the tetramerization of respective mutants by K-80003
MMTV-PyMT mammary tumour
  tumour cell proliferation (Ki-67): inhibition of tumour cell proliferation
p85α / tRXRα interaction [2]
  inhibition of tRXRα interaction with p85α: inhibits tRXRα interaction with p85α by promoting tRXRα tetramerization
p85α / tRXRα interaction [3]
  inhibition of tRXRα interaction with p85α: inhibits its interaction with p85α
PyMT mammary tumour
  growth of PyMT mammary tumour: potently inhibited the growth of PyMT mammary tumour
tRXRα/R316E
  oligomeric state of tRXRα/R316E: strong tetrameric species of tRXRα/R316E but not tRXRα/F313A independent of the presence of 9-cis-RA or K-80003
tRXRα [4]
  effect on TNFα-induced cytoplasmic colocalization of tRXRα with p85α: inhibited, resulting in tRXRα nuclear localization
RXRα-LBD
  crosslinked RXRα-LBD species: crosslinked species on SDS-PAGE gels of 25, 50 and 100 kDa, corresponding to monomer, dimer and tetramer of RXRα-LBD
PI3K signalling
  inhibition of activation of PI3K signalling: inhibits its interaction with p85α and activation of PI3K signalling
RXRα-LBD/F439A
  effect on tetramerization of F439A mutant: impaired the tetramerization of respective mutants by K-80003
RXRα-LBD/L433D
  binding to RXRα-LBD/L433D: failed to bind to RXRα-LBD/L433D
